Experimental data from the NIST ThermoML archive (doi:10.1016/j.jct.2006.04.005).

Assay: xn = mol fraction of the nth substance listed
Details: 303.15 K, 101 kPa, Liquid; for viscosity: Capillary tube (Ostwald / Ubbelohde) method; for excess molar volume: Direct dilatometry; for mass density: Pycnometric method

Clc1ccc(Cl)c(Cl)c1 [1,2,4-trichlorobenzene] + C[S+](C)[O-]
Details	excess molar volume [m3/mol]	mass density [kg/m3]	speed of sound [m/s]	viscosity [mPa·s]
x2 = 0	–	1442.14	1260	1.613
x2 = 0.0911	1.2e-08	–	1253	1.647
x2 = 0.1214	1.6e-08	–	1252	1.658
x2 = 0.1805	2.3e-08	–	1257	1.677
x2 = 0.2144	2.7e-08	–	1259	1.688
x2 = 0.251	3.2e-08	–	1264	1.699
x2 = 0.3225	3.9e-08	–	1274	1.719
x2 = 0.4115	4.6e-08	–	1285	1.742
x2 = 0.467	4.8e-08	–	1296	1.755
x2 = 0.5001	5e-08	–	1302	1.763
x2 = 0.5524	4.8e-08	–	1316	1.773
x2 = 0.6207	4.7e-08	–	1339	1.786
x2 = 0.7005	4e-08	–	1379	1.796
x2 = 0.7829	3e-08	–	1415	1.801
x2 = 0.8014	2.8e-08	–	1423	1.802
x2 = 0.9228	1.2e-08	–	1459	1.803

Clc1ccccc1Cl [1,2-dichlorobenzene] + C[S+](C)[O-]
Details	excess molar volume [m3/mol]	mass density [kg/m3]	speed of sound [m/s]	viscosity [mPa·s]
x2 = 0	–	1299.24	1261	1.302
x2 = 0.104	2.3e-08	–	1264	1.379
x2 = 0.1511	3.3e-08	–	1268	1.409
x2 = 0.2041	4e-08	–	1274	1.443
x2 = 0.2506	4.7e-08	–	1279	1.472
x2 = 0.301	5.3e-08	–	1284	1.502
x2 = 0.4025	6e-08	–	1303	1.56
x2 = 0.4511	6.3e-08	–	1312	1.587
x2 = 0.521	6.5e-08	–	1329	1.623
x2 = 0.6511	5.8e-08	–	1367	1.686
x2 = 0.7221	5.3e-08	–	1394	1.719
x2 = 0.7519	4.9e-08	–	1403	1.73
x2 = 0.8002	4e-08	–	1417	1.751
x2 = 0.8514	3.5e-08	–	1435	1.766
x2 = 0.9019	2.3e-08	–	1446	1.782
x2 = 0.9405	1.3e-08	–	1457	1.782

Clc1cccc(Cl)c1 [1,3-dichlorobenzene] + C[S+](C)[O-]
Details	excess molar volume [m3/mol]	mass density [kg/m3]	speed of sound [m/s]	viscosity [mPa·s]
x2 = 0	–	1277.12	1242	1.025
x2 = 0.0801	1.6e-08	–	1244	1.107
x2 = 0.1124	2.2e-08	–	1248	1.14
x2 = 0.1506	2.7e-08	–	1253	1.181
x2 = 0.2075	3.5e-08	–	1256	1.232
x2 = 0.2511	4e-08	–	1268	1.273
x2 = 0.3162	4.5e-08	–	1387	1.329
x2 = 0.4219	5.3e-08	–	1395	1.419
x2 = 0.4507	5.5e-08	–	1305	1.445
x2 = 0.5005	5.6e-08	–	1345	1.487
x2 = 0.6224	5.4e-08	–	1370	1.586
x2 = 0.6819	5e-08	–	1399	1.632
x2 = 0.7517	4.3e-08	–	1416	1.68
x2 = 0.8015	3.5e-08	–	1431	1.715
x2 = 0.852	2.7e-08	–	1455	1.742
x2 = 0.9221	1.7e-08	–	1467	1.778

Cc1ccccc1Cl [2-chlorotoluene] + C[S+](C)[O-]
Details	excess molar volume [m3/mol]	mass density [kg/m3]	speed of sound [m/s]	viscosity [mPa·s]
x2 = 0	–	1072.81	1284	0.887
x2 = 0.104	1.1e-08	–	1303	1.013
x2 = 0.1845	2.1e-08	–	1324	1.123
x2 = 0.2141	2.5e-08	–	1330	1.16
x2 = 0.2552	2.9e-08	–	1343	1.209
x2 = 0.3075	3.3e-08	–	1352	1.266
x2 = 0.376	3.9e-08	–	1369	1.342
x2 = 0.4079	4.2e-08	–	1377	1.375
x2 = 0.5224	4.6e-08	–	1403	1.49
x2 = 0.551	4.5e-08	–	1410	1.518
x2 = 0.6005	4.2e-08	–	1422	1.564
x2 = 0.7241	3.1e-08	–	1446	1.667
x2 = 0.761	2.7e-08	–	1450	1.69
x2 = 0.8011	2.3e-08	–	1460	1.724
x2 = 0.8711	1.6e-08	–	1464	1.773

Cc1ccccc1[N+](=O)[O-] [2-nitrotoluene] + C[S+](C)[O-]
Details	excess molar volume [m3/mol]	mass density [kg/m3]	speed of sound [m/s]	viscosity [mPa·s]
x2 = 0	–	1153.24	–	1.911
x2 = 0.0815	2.3e-08	–	2039	1.903
x2 = 0.1525	5.4e-08	–	1986	1.896
x2 = 0.2422	9.3e-08	–	1922	1.888
x2 = 0.2913	1.13e-07	–	1888	1.883
x2 = 0.3415	1.28e-07	–	1849	1.878
x2 = 0.4026	1.45e-07	–	1807	1.872
x2 = 0.4505	1.55e-07	–	1773	1.867
x2 = 0.5119	1.58e-07	–	1731	1.861
x2 = 0.5523	1.59e-07	–	1704	1.857
x2 = 0.602	1.54e-07	–	1674	1.852
x2 = 0.6521	1.43e-07	–	1645	1.847
x2 = 0.7122	1.25e-07	–	1612	1.841
x2 = 0.7516	1.13e-07	–	1591	1.836
x2 = 0.8115	8.5e-08	–	1564	1.829
x2 = 0.9227	3.5e-08	–	1508	1.814

Cc1cccc(Cl)c1 [3-chlorotoluene] + C[S+](C)[O-]
Details	excess molar volume [m3/mol]	mass density [kg/m3]	speed of sound [m/s]	viscosity [mPa·s]
x2 = 0	–	1065.21	1280	0.78
x2 = 0.0868	1.2e-08	–	1300	1.02
x2 = 0.1205	1.7e-08	–	1308	1.073
x2 = 0.1911	2.8e-08	–	1324	1.164
x2 = 0.2207	3.1e-08	–	–	1.203
x2 = 0.261	3.7e-08	–	1342	1.249
x2 = 0.3125	4.1e-08	–	1356	1.305
x2 = 0.3829	4.7e-08	–	1372	1.38
x2 = 0.4156	4.9e-08	–	1382	1.415
x2 = 0.502	5.2e-08	–	1404	1.503
x2 = 0.5419	5e-08	–	1412	1.541
x2 = 0.6205	4.7e-08	–	1429	1.602
x2 = 0.7125	3.7e-08	–	1450	1.674
x2 = 0.7517	3.3e-08	–	1457	1.704
x2 = 0.824	2.5e-08	–	1468	1.735
x2 = 0.9246	1.3e-08	–	1469	1.783

Cc1cccc([N+](=O)[O-])c1 [3-nitrotoluene] + C[S+](C)[O-]
Details	excess molar volume [m3/mol]	mass density [kg/m3]	speed of sound [m/s]	viscosity [mPa·s]
x2 = 0	–	1147.67	–	1.777
x2 = 0.1052	3.9e-08	–	2002	1.78
x2 = 0.1512	6e-08	–	1964	1.781
x2 = 0.1921	7.9e-08	–	1936	1.782
x2 = 0.2216	9.2e-08	–	1909	1.783
x2 = 0.272	1.14e-07	–	1876	1.784
x2 = 0.305	1.28e-07	–	1851	1.785
x2 = 0.3641	1.52e-07	–	1812	1.786
x2 = 0.4121	1.62e-07	–	1778	1.787
x2 = 0.4772	1.77e-07	–	–	1.789
x2 = 0.5226	1.83e-07	–	1711	1.79
x2 = 0.6035	1.75e-07	–	1661	1.792
x2 = 0.724	1.46e-07	–	1598	1.794
x2 = 0.8126	1.07e-07	–	1555	1.796
x2 = 0.8905	6.2e-08	–	1518	1.799
x2 = 0.9607	2.5e-08	–	1489	1.801
